Consider 57 compounds from US8748452B2, “Indolizine derivative and use thereof for medical purposes” (Kissei Pharmaceutical Co., Ltd., priority 2009, dated 2014).

Test [1] has as its target T1, Xanthine oxidase (from bovine milk, Sigma) (Bos taurus, UniProt P80457).
T1 construct: Xanthine oxidase (from bovine milk, Sigma); purchased Sigma; host or cells: bovine milk
The experiment in a line: Xanthine oxidase inhibitory activity. It counts as biochemical. As to conditions: xanthine oxidase from bovine milk 0.02 units/mL, xanthine 200 μM, 10 minutes at room temperature, absorbance at 290 nm. As to the method:
(1) Preparation of test compounds
Test compounds were dissolved in DMSO (Wako pure chemical) at 40 mM concentration and then diluted to intended concentrations with phosphate-buffered saline (PBS).
(2) Method for measurement
Xanthine oxidase (from bovine milk, Sigma) was prepared with phosphate-buffered saline (PBS) at 0.02 units/mL, and then the solution was added to 96 well plates at 50 μL/well. In addition, test compounds diluted with PBS were added at 50 μL/well. Xanthine (Wako pure chemical) at 200 μM prepared with PBS was added at 100 μL/well, and the mixture was reacted for 10 minutes at room temperature. Absorbance at 290 nm was measured using a microplate reader SpectraMax Plus 384 (Molecular device). The absorbance under a condition without xanthine is 0%, and control without test compounds is 100%. Fifty % inhibitory concentration (IC50) of test compounds was calculated (Table 17). Ex. No. in the table indicates Example number.

The test system of a further test is male CD (SD) IGS rats. The experiment in a line: Serum hypouricemic effect. In kind it is in vivo. As to conditions: Rattus norvegicus; 1 mg/kg oral gavage, overnight fasted male rats, serum at 2 hours after administration; read-out: percent decrease in uric acid. How it is done: Test compounds at 1 mg/kg suspended in 0.5% methylcellulose solution were administered by oral gavage administration to overnight fasted male CD (SD) IGS rats (5-week-old, Charls River Japan). At 2 hours after administration, blood was collected under ether anesthesia from abdominal aorta, and serum was separated according to general method. Serum uric acid values were determined by use of uric acid measurement kit (Uric acid C-Test Wako: Wako pure chemical), and percent decrease in uric acid was calculated according to the formula described below. As a result, it was shown that compounds of Examples 2, 7, 10, 22, 23, 25, 37, 49, 50 and 58 have over 60% percent decrease in uric acid.
Percent decrease in uric acid (%)=(Serum uric acid values in control animals−Serum uric acid values in animals administered test compounds)×100/Serum uric acid values in control animals

T1 sequence (P80457 whole entry): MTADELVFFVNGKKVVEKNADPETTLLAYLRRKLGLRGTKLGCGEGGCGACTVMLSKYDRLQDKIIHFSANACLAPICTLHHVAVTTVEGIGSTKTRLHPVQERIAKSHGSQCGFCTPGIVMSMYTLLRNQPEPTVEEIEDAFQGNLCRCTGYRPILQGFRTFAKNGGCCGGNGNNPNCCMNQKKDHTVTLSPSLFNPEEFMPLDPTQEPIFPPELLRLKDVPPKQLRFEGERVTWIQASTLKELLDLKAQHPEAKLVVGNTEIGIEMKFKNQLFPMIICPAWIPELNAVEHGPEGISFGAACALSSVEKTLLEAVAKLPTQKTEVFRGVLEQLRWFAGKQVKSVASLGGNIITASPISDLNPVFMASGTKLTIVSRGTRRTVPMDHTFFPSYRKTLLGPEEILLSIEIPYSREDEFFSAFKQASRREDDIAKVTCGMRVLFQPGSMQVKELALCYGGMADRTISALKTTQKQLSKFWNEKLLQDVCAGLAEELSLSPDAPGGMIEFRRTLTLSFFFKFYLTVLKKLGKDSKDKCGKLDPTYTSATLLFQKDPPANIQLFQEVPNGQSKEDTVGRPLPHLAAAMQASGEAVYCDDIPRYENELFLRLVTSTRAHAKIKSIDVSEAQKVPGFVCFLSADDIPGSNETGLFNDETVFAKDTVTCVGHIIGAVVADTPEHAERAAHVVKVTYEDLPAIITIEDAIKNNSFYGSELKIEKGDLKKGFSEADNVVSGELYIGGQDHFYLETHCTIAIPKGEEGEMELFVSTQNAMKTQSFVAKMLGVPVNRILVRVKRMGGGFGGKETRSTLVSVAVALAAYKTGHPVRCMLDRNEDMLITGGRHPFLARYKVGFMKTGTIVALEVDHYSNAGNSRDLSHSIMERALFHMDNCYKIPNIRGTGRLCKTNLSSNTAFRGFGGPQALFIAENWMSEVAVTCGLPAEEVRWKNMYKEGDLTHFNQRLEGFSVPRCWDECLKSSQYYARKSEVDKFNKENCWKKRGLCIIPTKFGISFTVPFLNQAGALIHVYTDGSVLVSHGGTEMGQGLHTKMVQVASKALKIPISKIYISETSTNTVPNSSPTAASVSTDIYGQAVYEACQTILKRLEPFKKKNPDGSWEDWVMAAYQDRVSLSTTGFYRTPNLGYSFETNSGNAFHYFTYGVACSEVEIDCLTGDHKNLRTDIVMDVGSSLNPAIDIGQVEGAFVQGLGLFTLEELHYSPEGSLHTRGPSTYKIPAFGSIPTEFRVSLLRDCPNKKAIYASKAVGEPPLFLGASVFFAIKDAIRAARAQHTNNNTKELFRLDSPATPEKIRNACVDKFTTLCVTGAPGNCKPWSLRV

Turning to `Cc1nc(-c2cc(C#N)c3ccccn23)sc1C(=O)O` [Example 71], in test [1], the IC50 was 20 nM. Same read-out and setting: the same measure for `CC(C)Oc1ccn2c(-c3ccc(C(=O)O)cc3)cc(C#N)c2c1C(F)(F)F` [Example 47, 4-(1-Cyano-7-isopropoxy-8-trifluoromethylindolizine-3-yl) benzoic acid]: 2 nM; for `N#Cc1cc(-c2ccc(C(=O)O)cc2)n2ccc3c(c12)CCCC3` [Example 9]: 3 nM; for `CC(=O)c1ccn2c(-c3ccc(C(=O)O)c(O)c3)cc(C#N)c2c1` [Example 53]: 3 nM.

For `Cc1ccn2c(-c3ccc(C(=O)O)cc3)cc(C#N)c2c1Cl` [Example 37], inhibition in test [1] was half-maximal at 4 nM (IC50). Further, the inhibition in vivo at 1 mg/kg in the test on male CD (SD) IGS rats is more than 60%. On to `COc1cc2c(C#N)cc(-c3ccc(C(=O)O)cc3)n2cc1C` [Example 46], for which, in test [1], the IC50 turned out to be 8 nM.

For `N#Cc1cc(-c2ccc(C(=O)O)c(O)c2)n2cc(F)c(C(F)(F)F)cc12` [Example 48], the IC50 in test [1] turned out to be 6 nM. The IC50 values of the last two compounds are within 1.5-fold of each other. The same measure, in the same setting: the same measure for `Cc1ccn2c(-c3cnc(C(=O)O)c(O)c3)cc(C#N)c2c1` [Example 66]: 2 nM. For `CCc1cccn2c(-c3ccc(C(=O)O)c(O)c3)cc(C#N)c12` [Example 24], the IC50 in test [1] amounted to 6 nM. With `CC(C)c1ccn2c(-c3ccc(C(=O)O)cc3)cc(C#N)c2c1` [Example 42], in test [1], 4 nM corresponded to half-maximal inhibition (IC50). Same read-out and setting: the same measure for `COc1cccn2c(-c3ccc(C(=O)O)cc3)cc(C#N)c12` [Example 41]: 5 nM. For `Cc1ccn2c(-c3ccc(C(=O)O)c(O)c3)cc(C#N)c2c1F` [Example 23], the IC50 in test [1] was determined as 3 nM. Besides, the inhibition in vivo at 1 mg/kg in the test on male CD (SD) IGS rats was more than 60%. In test [1], `N#Cc1cc(-c2ccc(C(=O)O)cc2)n2cccc(F)c12` [Example 13] had an IC50 of 9 nM. Same read-out and setting: the same measure for `Cc1ccn2c(-c3ccc(C(=O)O)c(O)c3)cc(C#N)c2c1C` [Example 51]: 5 nM; for `Cc1c(Cl)ccn2c(-c3ccc(C(=O)O)c(O)c3)cc(C#N)c12` [Example 52]: 2 nM; for `N#Cc1cc(-c2ccc(C(=O)O)c(N)c2)n2ccccc12` [Example 30, 2-Amino-4-(1-cyanoindolizine-3-yl) benzoic acid]: 8 nM.

Compound `Cc1cccn2c(-c3ccc(C(=O)O)cc3)cc(C#N)c12` [Example 4] showed an IC50 in test [1] of 7 nM. Still for that read-out and setting: the same measure for `CCc1cccn2c(-c3ccc(C(=O)O)cc3)cc(C#N)c12` [Example 11]: 4 nM. `Cc1ccn2c(-c3ccc(C(=O)O)c(F)c3)cc(C#N)c2c1F` [Example 34]: in test [1], the IC50 was found to be 10 nM. Regarding `N#Cc1cc(-c2ccc(C(=O)O)c(O)c2)n2ccccc12` [Example 17, 4-(1-Cyanoindolizine-3-yl)-2-hydroxybenzoic acid], inhibition in test [1] was half-maximal at 4 nM (IC50). Still for that read-out and setting: the same measure for `CN(C)c1ccn2c(-c3ccc(C(=O)O)c(O)c3)cc(C#N)c2c1` [Example 59]: 10 nM; for `N#Cc1c(F)c(-c2ccc(C(=O)O)c(O)c2)n2ccccc12` [Example 62, 4-(1-Cyano-2-fluoroindolizine-3-yl)-2-hydroxybenzoic acid]: 4 nM; for `N#Cc1cc(-c2ccc(C(=O)O)c(O)c2)n2ccc(-c3cnco3)cc12` [Example 57]: 4 nM. Same read-out and setting: the same measure for `COc1cc2c(C#N)cc(-c3ccc(C(=O)O)c(O)c3)n2cc1C` [Example 60]: 15 nM; for `Cc1c(Cl)ccn2c(-c3ccc(C(=O)O)cc3)cc(C#N)c12` [Example 39]: 8 nM; for `N#Cc1cc(-c2ccc(C(=O)O)cc2)n2cc(F)ccc12` [Example 14]: 18 nM. Same read-out and setting: the same measure for `Cc1ccn2c(-c3cnc(C(=O)O)c(O)c3)cc(C#N)c2c1F` [Example 67]: 2 nM. In turn, `CCc1ccc2c(C#N)cc(-c3ccc(C(=O)O)cc3)n2c1` [Example 12] returned an IC50 in test [1] of 11 nM. In test [1], `COc1ccn2c(-c3ccc(C(=O)O)c(O)c3)cc(C#N)c2c1` [Example 58] came in with an IC50 of 2 nM. Also, the inhibition in vivo at 1 mg/kg in the test on male CD (SD) IGS rats is more than 60%. For `Cc1cccn2c(-c3ccc(C(=O)O)c(O)c3)cc(C#N)c12` [Example 19], in test [1], the IC50 came out at 3 nM. This lies in the single-digit nanomolar range. Still for that read-out and setting: the same measure for `N#Cc1cc(-c2ccc(C(=O)O)cc2)n2ccc(C(F)(F)F)cc12` [Example 15]: 10 nM; for `N#Cc1cc(-c2ccc(C(=O)O)cc2)n2ccc(Br)cc12` [Example 64]: 8 nM. On to `Cc1ccn2c(-c3ccc(C(=O)O)c(O)c3)cc(C#N)c2c1Cl` [Example 50], for which the IC50 in test [1] is 2 nM. For the same compound, the inhibition in vivo at 1 mg/kg with male CD (SD) IGS rats is more than 60%.

In test [1], `N#Cc1cc(-c2cnc(C(=O)O)c(O)c2)n2ccccc12` [Example 65] registered an IC50 of 8 nM. This counts as single-digit nanomolar.

In test [1], `N#Cc1cc(-c2ccc(C(=O)O)c(O)c2)n2cccc(F)c12` [Example 25] displayed an IC50 of 5 nM. Besides, the inhibition in vivo at 1 mg/kg with male CD (SD) IGS rats is more than 60%. Take `N#Cc1cc(-c2ccc(C(=O)O)c(O)c2)n2ccc(C(F)(F)F)cc12` [Example 27]: it took 5 nM to reach half-maximal inhibition in test [1] (IC50).

The compound `N#Cc1cc(-c2ccc(C(=O)O)cc2)n2cccc(Cl)c12` [Example 3] gave an IC50 in test [1] of 6 nM.

Take `Cc1cc2c(C#N)cc(-c3ccc(C(=O)O)c(O)c3)n2cc1Cl` [Example 49]: the IC50 in test [1] was found to be 2 nM. The inhibition in vivo at 1 mg/kg in the test on male CD (SD) IGS rats is more than 60%. In the case of `Cc1ccn2c(-c3ccc(C(=O)O)cc3)cc(C#N)c2c1` [Example 2], it took 4 nM to reach half-maximal inhibition in test [1] (IC50). The inhibition in vivo at 1 mg/kg in the test with male CD (SD) IGS rats is more than 60%. In test [1], `COc1ccn2c(-c3ccc(C(=O)O)cc3)cc(C#N)c2c1` [Example 45] showed a 50% inhibitory concentration (IC50) of 5 nM. Same read-out and setting: the same measure for `N#Cc1cc(-c2ccc(C(=O)O)nc2)n2ccccc12` [Example 70]: 18 nM; for `N#Cc1ccn2c(-c3ccc(C(=O)O)c(O)c3)cc(C#N)c2c1` [Example 54]: 3 nM. Still for that read-out and setting: the same measure for `N#Cc1cc(-c2ccc(C(=O)O)s2)n2ccccc12` [Example 28]: 3 nM. Regarding `Cc1ccn2c(-c3ccc(C(=O)O)cc3)cc(C#N)c2c1F` [Example 7], the IC50 in test [1] is 5 nM. Moreover, the inhibition in vivo at 1 mg/kg in the test on male CD (SD) IGS rats is more than 60%.

On to `Cc1cc(C)c2c(C#N)cc(-c3ccc(C(=O)O)cc3)n2c1` [Example 6], for which it took 9 nM to reach half-maximal inhibition in test [1] (IC50). As to `CC(C)(O)c1ccn2c(-c3ccc(C(=O)O)cc3)cc(C#N)c2c1` [Example 44], in test [1], the midpoint of inhibition, the IC50, lay at 3 nM.

`N#Cc1cc(-c2ccc(C(=O)O)cc2)n2ccccc12` [Example 1, 4-(1-Cyanoindolizine-3-yl) benzoic acid] gave an IC50 in test [1] of 7 nM.

`N#Cc1c(F)c(-c2ccc(C(=O)O)cc2)n2ccccc12` [Example 61, 4-(1-Cyano-2-fluoroindolizine-3-yl) benzoic acid] showed an IC50 in test [1] of 68 nM.

The compound `Cc1cc(C)c2c(C#N)cc(-c3ccc(C(=O)O)c(O)c3)n2c1` [Example 21] gave an IC50 in test [1] of 4 nM. In test [1], `N#Cc1cc(-c2ccc(C(=O)O)c(F)c2)n2ccccc12` [Example 33] yielded an IC50 of 30 nM. In test [1], `CCc1ccn2c(-c3ccc(C(=O)O)cc3)cc(C#N)c2c1` [Example 10] gave an IC50 of 8 nM. Besides, in the test with male CD (SD) IGS rats, the inhibition in vivo at 1 mg/kg is more than 60%. In test [1], `Cc1cc2c(C#N)cc(-c3ccc(C(=O)O)cc3)n2cc1Cl` [Example 36] returned an IC50 of 8 nM. In test [1], `CC(C)(C)c1ccn2c(-c3ccc(C(=O)O)cc3)cc(C#N)c2c1` [Example 43] came in with an IC50 of 2 nM.

With `Cc1ccn2c(-c3ccc(C(=O)O)cc3)cc(C#N)c2c1C` [Example 38], the IC50 in test [1] was determined as 5 nM. Same read-out and setting: the same measure for `Cc1ccc2c(C#N)cc(-c3ccc(C(=O)O)c(O)c3)n2c1` [Example 20]: 5 nM; for `CC(C)(C)c1ccn2c(-c3ccc(C(=O)O)c(O)c3)cc(C#N)c2c1` [Example 56]: 2 nM.

On to `N#Cc1cc(-c2ccc(C(=O)O)c(O)c2)n2ccc(CF)cc12` [Example 63, 4-(1-Cyano-7-fluoromethylindolizine-3-yl)-2-hydroxybenzoic acid], for which it took 8 nM to reach half-maximal inhibition in test [1] (IC50). Compared with the last compound, the IC50 is about 4-fold higher.
